Test results: BigSolDB 2.1

O=C1CCCC(=O)O1
solubility (mole fraction) (in acetic acid, 279.65 K): 0.0783
solubility (mole fraction) (in acetic acid, 282.25 K): 0.0967
solubility (mole fraction) (in acetic acid, 284.55 K): 0.119
solubility (mole fraction) (in acetic acid, 287.05 K): 0.152
solubility (mole fraction) (in acetic acid, 289.55 K): 0.183
solubility (mole fraction) (in acetic acid, 291.95 K): 0.223
solubility (mole fraction) (in acetic acid, 294.25 K): 0.27
solubility (mole fraction) (in acetic acid, 296.65 K): 0.323
solubility (mole fraction) (in acetic acid, 299.15 K): 0.376
solubility (mole fraction) (in acetic acid, 302.15 K): 0.436
solubility (mole fraction) (in acetic acid, 304.05 K): 0.502
solubility (mole fraction) (in acetic acid, 306.25 K): 0.557
solubility (mole fraction) (in acetyl acetate, 278.45 K): 0.153
solubility (mole fraction) (in acetyl acetate, 282.45 K): 0.205
solubility (mole fraction) (in acetyl acetate, 283.85 K): 0.231
solubility (mole fraction) (in acetyl acetate, 285.45 K): 0.259
solubility (mole fraction) (in acetyl acetate, 287.65 K): 0.299
solubility (mole fraction) (in acetyl acetate, 290.55 K): 0.342
solubility (mole fraction) (in acetyl acetate, 293.05 K): 0.388
solubility (mole fraction) (in acetyl acetate, 296.95 K): 0.437
solubility (mole fraction) (in acetyl acetate, 300.25 K): 0.502
solubility (mole fraction) (in acetyl acetate, 304.05 K): 0.562
solubility (mole fraction) (in tetrachloromethane, 282.25 K): 0.00064
solubility (mole fraction) (in tetrachloromethane, 285.45 K): 0.00073
solubility (mole fraction) (in tetrachloromethane, 288.05 K): 0.00097
solubility (mole fraction) (in tetrachloromethane, 291.15 K): 0.00141
solubility (mole fraction) (in tetrachloromethane, 293.95 K): 0.00182
solubility (mole fraction) (in tetrachloromethane, 295.95 K): 0.00225
solubility (mole fraction) (in tetrachloromethane, 300.25 K): 0.00268
solubility (mole fraction) (in tetrachloromethane, 303.25 K): 0.00321
solubility (mole fraction) (in tetrachloromethane, 306.25 K): 0.0039
solubility (mole fraction) (in tetrachloromethane, 309.85 K): 0.00487
solubility (mole fraction) (in tetrachloromethane, 312.95 K): 0.00544
solubility (mole fraction) (in tetrachloromethane, 315.55 K): 0.00586
solubility (mole fraction) (in tetrachloromethane, 318.25 K): 0.00619
solubility (mole fraction) (in tetrachloromethane, 320.45 K): 0.00639
